Measurements reported in the supplement of paper PMC10307832.

Assays:
Assay in all cases: relative viability (nuclei count vs DMSO), 5 days (fraction); higher = more cells survive
Dovitinib = compound: CN1CCN(c2ccc3nc(-c4c(N)c5c(F)cccc5[nH]c4=O)[nH]c3c2)CC1 [Dovitinib]
Summary of the method: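 For viability, nuclei in each treated well were divided by nuclei in vehicle wells and the median across plates was taken. Lung cancer cell lines in 1536-well plates were pinned with five library-drug doses (not always all listed) spaced by √10, cultured 5 days without medium change, and imaged at 4× after Hoechst staining, with plates passing only at control CV below 25% and at least one doubling.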

Dovitinib + Olaparib = compound: CN1CCN(c2ccc3nc(-c4c(N)c5c(F)cccc5[nH]c4=O)[nH]c3c2)CC1 [Dovitinib] + O=C(c1cc(Cc2n[nH]c(=O)c3ccccc23)ccc1F)N1CCN(C(=O)C2CC2)CC1 [Olaparib] (partner 8 µM)
Summary of the method: (§1)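 Relative viability divides the nuclei count in treated wells by that in vehicle wells. Lung cancer cell lines were seeded in 1536-well plates, dosed by pin tool the next day, and fixed and stained after 5 days in one step with final 0.05% Triton X-100, 1% formaldehyde and 1 ug/ml Hoechst. Dosing was a single drug or a fixed anchor-drug dose plus five library-drug doses (not always all listed) in √10 steps, and values are medians of duplicate plates imaged at 4×.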

Dovitinib + Phenformin = compound: CN1CCN(c2ccc3nc(-c4c(N)c5c(F)cccc5[nH]c4=O)[nH]c3c2)CC1 [Dovitinib] + N=C(N)NC(=N)NCCc1ccccc1 [Phenformin] (partner 250 µM)
Summary of the method: as §1

Dovitinib + Trametinib = compound: CN1CCN(c2ccc3nc(-c4c(N)c5c(F)cccc5[nH]c4=O)[nH]c3c2)CC1 [Dovitinib] + CC(=O)Nc1cccc(-n2c(=O)n(C3CC3)c(=O)c3c(Nc4ccc(I)cc4F)n(C)c(=O)c(C)c32)c1 [Trametinib] (partner 0.02 µM)
Summary of the method: as §1

Cell Line	relative viability (Dovitinib; 0.02 µM)	relative viability (Dovitinib; 0.06325 µM)	relative viability (Dovitinib; 0.2 µM)	relative viability (Dovitinib; 0.6325 µM)	relative viability (Dovitinib; 2 µM)	relative viability (Dovitinib + Olaparib; first compound 0.02 µM)	relative viability (Dovitinib + Olaparib; first compound 0.06325 µM)	relative viability (Dovitinib + Olaparib; first compound 0.2 µM)	relative viability (Dovitinib + Olaparib; first compound 0.6325 µM)	relative viability (Dovitinib + Olaparib; first compound 2 µM)	relative viability (Dovitinib + Phenformin; first compound 0.02 µM)	relative viability (Dovitinib + Phenformin; first compound 0.06325 µM)	relative viability (Dovitinib + Phenformin; first compound 0.2 µM)	relative viability (Dovitinib + Phenformin; first compound 0.6325 µM)	relative viability (Dovitinib + Phenformin; first compound 2 µM)	relative viability (Dovitinib + Trametinib; first compound 0.02 µM)	relative viability (Dovitinib + Trametinib; first compound 0.06325 µM)	relative viability (Dovitinib + Trametinib; first compound 0.2 µM)	relative viability (Dovitinib + Trametinib; first compound 0.6325 µM)	relative viability (Dovitinib + Trametinib; first compound 2 µM)
LCLC-97TM1	1.07	0.785	1.01	1	0.979	0.371	0.443	0.369	0.364	0.255	0.354	0.412	0.431	0.43	0.428	0.267	0.204	0.199	0.196	0.203
HARA	1.29	0.948	1	1.25	1.01	0.973	0.921	1.07	0.775	0.885	0.537	0.476	0.47	0.362	0.53	0.89	0.924	0.484	0.827	0.878
HCC-78	1.02	0.809	1.05	1.04	0.952	0.887	0.665	1.05	0.777	0.888	0.769	0.688	0.716	0.902	0.729	0.643	0.663	0.762	0.813	0.746
NCI-H1666	1.2	1.09	1.09	1.01	1.01	0.755	0.777	0.756	0.731	0.77	0.612	0.579	0.588	0.554	0.566	1.02	0.881	0.939	0.945	0.855
NCI-H2347	1.04	1.02	1.06	1.08	1.04	0.568	0.59	0.621	0.641	0.606	0.294	0.381	0.378	0.43	0.376	0.284	0.289	0.286	0.277	0.271
NCI-H838	0.935	1	1.01	0.95	0.966	0.738	0.733	0.755	0.745	0.763	0.553	0.627	0.74	0.62	0.662	0.514	0.499	0.487	0.477	0.543
NCI-H2023	0.94	0.969	1.11	1	0.926	0.454	0.487	0.541	0.432	0.482	0.38	0.416	0.457	0.38	0.398	0.549	0.493	0.405	0.5	0.537
201T	0.895	0.954	0.991	1.02	0.989	0.803	0.842	0.809	0.865	0.815	0.449	0.42	0.463	0.409	0.459	0.706	0.701	0.699	0.748	0.674
NCI-H1915	0.937	0.975	1	1.01	0.981	0.253	0.27	0.271	0.264	0.257	0.361	0.38	0.365	0.358	0.379	0.275	0.282	0.306	0.283	0.319
NCI-H2009	0.881	1.01	1.02	1.03	1.12	0.651	0.668	0.657	0.671	0.832	0.456	0.493	0.47	0.408	0.562	0.291	0.301	0.289	0.228	0.265
BEN	0.987	0.959	1.14	1.12	0.964	1.11	1.09	1.08	1.1	1.05	0.248	0.288	0.281	0.296	0.305	0.976	0.888	1.01	1.05	1.04
PC-14	1	1.01	1.03	1.03	1.04	0.291	0.276	0.27	0.217	0.247	0.657	0.563	0.553	0.542	0.765	0.743	0.795	0.822	0.696	0.86
SK-MES-1	0.988	1.01	1.06	1.01	1.03	0.682	0.749	0.74	0.773	0.829	0.662	0.7	0.69	0.634	0.667	0.531	0.59	0.597	0.567	0.61
NCI-H727	1.1	0.782	0.968	0.989	0.921	0.584	0.72	0.719	0.679	0.674	0.524	0.488	0.664	0.516	0.642	0.405	0.401	0.407	0.416	0.426
NCI-H1355	1.04	0.931	1.04	0.989	1.07	0.792	0.762	0.717	0.723	0.754	0.428	0.428	0.477	0.433	0.529	0.461	0.405	0.475	0.45	0.492
NCI-H1975	0.916	0.966	1.03	0.976	0.947	0.733	0.912	0.671	0.792	0.74	0.427	0.415	0.411	0.409	0.423	0.404	0.405	0.329	0.382	0.388
LK-2	0.944	0.974	0.895	0.975	0.847	0.738	0.818	0.676	0.935	0.739	0.539	0.306	0.38	0.486	0.342	0.758	0.751	0.784	0.809	0.585
NCI-H661	0.988	0.993	1.04	1.03	1.06	0.68	0.749	0.738	0.774	0.752	0.267	0.328	0.304	0.268	0.308	0.581	0.617	0.678	0.637	0.607

Cell Line	relative viability (Dovitinib; 0.02 µM)	relative viability (Dovitinib; 0.06325 µM)	relative viability (Dovitinib; 0.2 µM)	relative viability (Dovitinib; 0.6325 µM)	relative viability (Dovitinib; 2 µM)	relative viability (Dovitinib + Olaparib; first compound 0.02 µM)	relative viability (Dovitinib + Olaparib; first compound 0.06325 µM)	relative viability (Dovitinib + Olaparib; first compound 0.2 µM)	relative viability (Dovitinib + Olaparib; first compound 0.6325 µM)	relative viability (Dovitinib + Olaparib; first compound 2 µM)	relative viability (Dovitinib + Phenformin; first compound 0.02 µM)	relative viability (Dovitinib + Phenformin; first compound 0.06325 µM)	relative viability (Dovitinib + Phenformin; first compound 0.2 µM)	relative viability (Dovitinib + Phenformin; first compound 0.6325 µM)	relative viability (Dovitinib + Phenformin; first compound 2 µM)	relative viability (Dovitinib + Trametinib; first compound 0.02 µM)	relative viability (Dovitinib + Trametinib; first compound 0.06325 µM)	relative viability (Dovitinib + Trametinib; first compound 0.2 µM)	relative viability (Dovitinib + Trametinib; first compound 0.6325 µM)	relative viability (Dovitinib + Trametinib; first compound 2 µM)
HCC-366	0.989	0.978	0.993	0.973	0.982	0.324	0.352	0.412	0.297	0.324	0.628	0.6	0.636	0.57	0.641	0.405	0.379	0.338	0.323	0.371
HOP-62	0.907	1.03	1.03	1.06	1.04	0.346	0.559	0.425	0.329	0.352	0.616	0.713	0.742	0.55	0.646	0.368	0.386	0.397	0.392	0.352
NCI-H1944	0.94	0.94	1.08	1.02	1.01	0.416	0.422	0.447	0.387	0.426	0.216	0.198	0.244	0.202	0.217	0.391	0.395	0.409	0.395	0.36
SW 1573	1.05	0.992	1.01	0.947	1.07	0.512	0.525	0.593	0.446	0.507	0.355	0.413	0.473	0.282	0.359	0.579	0.617	0.563	0.551	0.592
LU99A	0.911	0.944	0.971	0.97	1.04	0.256	0.279	0.275	0.276	0.281	0.814	0.811	0.926	0.86	0.864	0.534	0.505	0.541	0.481	0.557
NCI-H647	0.957	0.991	1.04	0.991	0.949	0.578	0.538	0.5	0.418	0.675	0.396	0.49	0.638	0.621	0.48	0.456	0.49	0.435	0.399	0.494
A-427	0.918	0.901	1.06	1.06	1.05	0.711	0.641	0.773	0.797	0.822	0.363	0.3	0.307	0.282	0.347	0.724	0.705	0.709	0.768	0.72
COR-L 105	0.924	0.961	1.11	0.97	0.981	0.691	0.712	0.72	0.765	0.638	0.396	0.52	0.506	0.486	0.62	0.533	0.405	0.441	0.459	0.577
NCI-H441	1.08	1.11	1.04	1.07	1.06	0.513	0.549	0.534	0.62	0.588	0.981	0.786	0.767	0.898	0.839	0.486	0.477	0.434	0.441	0.49
EBC-1	1.08	0.997	1.06	0.975	1.06	0.723	0.69	0.664	0.712	0.677	–	–	–	–	–	–	–	–	–	–
NCI-H1648	0.914	0.805	1.12	0.908	0.789	0.506	0.815	0.932	0.667	0.77	–	–	–	–	–	0.581	0.413	0.471	0.477	0.527
ABC-1	0.847	0.953	1.08	1.1	0.924	0.628	0.664	0.871	1.09	0.944	0.211	0.317	0.243	0.237	0.204	–	–	–	–	–
NCI-H1563	1.01	1.07	0.97	1.05	1.08	–	–	–	–	–	0.591	0.669	0.665	0.656	0.664	–	–	–	–	–
NCI-H1299	0.966	1.03	1.03	0.98	1.03	0.927	1.01	0.982	0.946	1.02	–	–	–	–	–	–	–	–	–	–
A549	0.964	1.04	1.06	0.991	0.966	0.301	0.329	0.353	0.458	0.353	0.145	0.174	0.284	0.113	0.201	–	–	–	–	–
IA-LM	0.864	1.02	0.962	0.989	0.873	0.723	0.812	0.916	0.795	0.845	–	–	–	–	–	–	–	–	–	–
Calu-6	0.977	1.01	0.999	0.981	0.959	0.572	0.578	0.553	0.571	0.809	–	–	–	–	–	–	–	–	–	–
